According to ChEMBL document CHEMBL1649198, “Efflux unbalance in Pseudomonas aeruginosa isolates from cystic fibrosis patients” (2009):
Values after ≈ are worked out from the molar mass of the structure shown.

What was measured:
Pseudomonas aeruginosa [1] = assay: Antimicrobial activity against Pseudomonas aeruginosa PAO1 by twofold macrodilution method; format: functional
Pseudomonas aeruginosa [2] = assay: Antimicrobial activity against ampicillin- and ticarcillin-resistant Pseudomonas aeruginosa FE60 mutant transformed with pAGH97 carrying mexXY F29S mutant by twofold macrodilution method; format: functional
Pseudomonas aeruginosa [3] = assay: Antimicrobial activity against mexXY deficient ampicillin- and ticarcillin-resistant Pseudomonas aeruginosa FE60 mutant by twofold macrodilution method; format: functional
Pseudomonas aeruginosa [4] = assay: Antimicrobial activity against Pseudomonas aeruginosa isolate 2858 obtained from cystic fibrosis patient by disk diffusion method; format: functional
Pseudomonas aeruginosa [5] = assay: Antimicrobial activity against Pseudomonas aeruginosa isolate 615S obtained from cystic fibrosis patient by disk diffusion method; format: functional
Pseudomonas aeruginosa [6] = assay: Antimicrobial activity against Pseudomonas aeruginosa isolate 2804 obtained from cystic fibrosis patient by disk diffusion method; format: functional
Pseudomonas aeruginosa [7] = assay: Antimicrobial activity against Pseudomonas aeruginosa isolate 615R obtained from cystic fibrosis patient by disk diffusion method; format: functional
Pseudomonas aeruginosa [8] = assay: Antimicrobial activity against ampicillin- and ticarcillin-resistant Pseudomonas aeruginosa FE60 mutant transformed with pAGH97 carrying mexXY operon by twofold macrodilution method; format: functional
Pseudomonas aeruginosa [9] = assay: Antimicrobial activity against mexXY operon inactivated Pseudomonas aeruginosa isolate 615S obtained from cystic fibrosis patient by disk diffusion method; format: functional, organism-based
Pseudomonas aeruginosa [10] = assay: Antimicrobial activity against ampicillin- and ticarcillin-resistant Pseudomonas aeruginosa FE60 mutant transformed with pAGH97 carrying mexXY F1018L mutant by twofold macrodilution method; format: functional
Pseudomonas aeruginosa [11] = assay: Antimicrobial activity against Pseudomonas aeruginosa isolate 2933 obtained from cystic fibrosis patient by disk diffusion method; format: functional
Pseudomonas aeruginosa [12] = assay: Antimicrobial activity against Pseudomonas aeruginosa isolate 3066 obtained from cystic fibrosis patient by disk diffusion method; format: functional
Pseudomonas aeruginosa [13] = assay: Antimicrobial activity against Pseudomonas aeruginosa mutGR1 overexpressing mexXY mutant by twofold macrodilution method; format: functional
Pseudomonas aeruginosa [14] = assay: Antimicrobial activity against Pseudomonas aeruginosa isolate 3020S obtained from cystic fibrosis patient by disk diffusion method; format: functional
Pseudomonas aeruginosa [15] = assay: Antimicrobial activity against mexXY operon inactivated Pseudomonas aeruginosa PAO1 by twofold macrodilution method; format: functional
Pseudomonas aeruginosa [16] = assay: Antimicrobial activity against mexXY operon inactivated Pseudomonas aeruginosa isolate 2858 obtained from cystic fibrosis patient by disk diffusion method; format: functional, organism-based
Pseudomonas aeruginosa [17] = assay: Antimicrobial activity against Pseudomonas aeruginosa isolate 2729 obtained from cystic fibrosis patient by disk diffusion method; format: functional
Pseudomonas aeruginosa [18] = assay: Antimicrobial activity against Pseudomonas aeruginosa isolate 3020R obtained from cystic fibrosis patient by agar dilution method
Pseudomonas aeruginosa [19] = assay: Antimicrobial activity against Pseudomonas aeruginosa isolate 2721 obtained from cystic fibrosis patient by agar dilution method
Pseudomonas aeruginosa [20] = assay: microbe, parasite or virus in culture; conditions: isolate 3020S
Description: Antimicrobial activity against Pseudomonas aeruginosa isolate 3020S expressing inactivated mexB gene by disk diffusion method

Pseudomonas aeruginosa [21] = assay: Antimicrobial activity against Pseudomonas aeruginosa isolate 2998 expressing inactivated mexB gene by disk diffusion method; format: functional
Pseudomonas aeruginosa [22] = assay: microbe, parasite or virus in culture; conditions: isolate 3020R
Description: Antimicrobial activity against Pseudomonas aeruginosa isolate 3020R expressing inactivated mexB gene by disk diffusion method

Pseudomonas aeruginosa [23] = assay: Antimicrobial activity against Pseudomonas aeruginosa isolate 2715 obtained from cystic fibrosis patient by agar dilution method
Pseudomonas aeruginosa [24] = assay: microbe, parasite or virus in culture; conditions: isolate 3066
Description: Antimicrobial activity against Pseudomonas aeruginosa isolate 3066 expressing inactivated mexB gene by disk diffusion method

Pseudomonas aeruginosa [25] = assay: Antimicrobial activity against Pseudomonas aeruginosa isolate 2933 expressing inactivated mexB gene by disk diffusion method; format: functional
Pseudomonas aeruginosa [26] = assay: microbe, parasite or virus in culture; conditions: isolate 2729
Description: Antimicrobial activity against Pseudomonas aeruginosa isolate 2729 expressing inactivated mexB gene by disk diffusion method

Pseudomonas aeruginosa [27] = assay: Antimicrobial activity against Pseudomonas aeruginosa isolate 2998 obtained from cystic fibrosis patient by agar dilution method
Pseudomonas aeruginosa [28] = assay: microbe, parasite or virus in culture; conditions: isolate 615R
Description: Antimicrobial activity against Pseudomonas aeruginosa isolate 615R expressing inactivated mexB gene by disk diffusion method

Pseudomonas aeruginosa [29] = assay: microbe, parasite or virus in culture; conditions: isolate 2716
Description: Antimicrobial activity against Pseudomonas aeruginosa isolate 2716 expressing inactivated mexB gene by disk diffusion method

Pseudomonas aeruginosa [30] = assay: microbe, parasite or virus in culture; conditions: isolate 2715
Description: Antimicrobial activity against Pseudomonas aeruginosa isolate 2715 expressing inactivated mexB gene by disk diffusion method

Pseudomonas aeruginosa [31] = assay: Antimicrobial activity against Pseudomonas aeruginosa isolate 2721 expressing inactivated mexB gene by disk diffusion method; format: functional
Pseudomonas aeruginosa [32] = assay: Antimicrobial activity against Pseudomonas aeruginosa isolate 2716 obtained from cystic fibrosis patient by agar dilution method

| Molecule | MIC (Pseudomonas aeruginosa [1]) [µg/mL] | MIC (Pseudomonas aeruginosa [2]) [µg/mL] | MIC (Pseudomonas aeruginosa [3]) [µg/mL] | MIC (Pseudomonas aeruginosa [4]) [µg/mL] | MIC (Pseudomonas aeruginosa [5]) [µg/mL] | MIC (Pseudomonas aeruginosa [6]) [µg/mL] | MIC (Pseudomonas aeruginosa [7]) [µg/mL] | MIC (Pseudomonas aeruginosa [8]) [µg/mL] | MIC (Pseudomonas aeruginosa [10]) [µg/mL] | MIC (Pseudomonas aeruginosa [11]) [µg/mL] | MIC (Pseudomonas aeruginosa [12]) [µg/mL] | MIC (Pseudomonas aeruginosa [13]) [µg/mL] | MIC (Pseudomonas aeruginosa [14]) [µg/mL] | MIC (Pseudomonas aeruginosa [15]) [µg/mL] | MIC (Pseudomonas aeruginosa [17]) [µg/mL] | MIC (Pseudomonas aeruginosa [18]) [µg/mL] | MIC (Pseudomonas aeruginosa [19]) [µg/mL] | MIC (Pseudomonas aeruginosa [23]) [µg/mL] | MIC (Pseudomonas aeruginosa [27]) [µg/mL] | MIC (Pseudomonas aeruginosa [32]) [µg/mL] | also measured |
| --- | --- | --- | --- | --- | --- | --- | --- | --- | --- | --- | --- | --- | --- | --- | --- | --- | --- | --- | --- | --- | --- |
| GENTAMICIN | 1 | 1 | 0.125 | 4 | 1 | 64 | 8 | 1 | 2 | 16 | 64 | 2 | 2 | 0.125 | 8 | – | – | – | – | – | MIC (Pseudomonas aeruginosa [9]): 0.125 µg/mL; MIC (Pseudomonas aeruginosa [16]): 0.125 µg/mL |
| C[C@H]1[C@H](NC(=O)/C(=N\OC(C)(C)C(=O)O)c2csc(N)n2)C(=O)N1S(=O)(=O)O [AZTREONAM] | – | – | – | 0.25 (≈ 0.574 µM) | 0.12 (≈ 0.276 µM) | 0.25 (≈ 0.574 µM) | 0.25 (≈ 0.574 µM) | – | – | 0.25 (≈ 0.574 µM) | 0.25 (≈ 0.574 µM) | – | – | 0.12 (≈ 0.276 µM) | 0.25 (≈ 0.574 µM) | 0.25 (≈ 0.574 µM) | 0.25 (≈ 0.574 µM) | 0.5 (≈ 1.15 µM) | 0.12 (≈ 0.276 µM) | 0.25 (≈ 0.574 µM) | MIC (Pseudomonas aeruginosa [20]): 0.25 µg/mL (≈ 0.574 µM); MIC (Pseudomonas aeruginosa [21]): 0.12 µg/mL (≈ 0.276 µM); MIC (Pseudomonas aeruginosa [22]): 0.25 µg/mL (≈ 0.574 µM); MIC (Pseudomonas aeruginosa [24]): 0.25 µg/mL (≈ 0.574 µM); MIC (Pseudomonas aeruginosa [25]): 0.12 µg/mL (≈ 0.276 µM); MIC (Pseudomonas aeruginosa [26]): 0.25 µg/mL (≈ 0.574 µM); MIC (Pseudomonas aeruginosa [28]): 0.25 µg/mL (≈ 0.574 µM); MIC (Pseudomonas aeruginosa [29]): 0.25 µg/mL (≈ 0.574 µM); MIC (Pseudomonas aeruginosa [30]): 0.25 µg/mL (≈ 0.574 µM); MIC (Pseudomonas aeruginosa [31]): 0.12 µg/mL (≈ 0.276 µM) |
| CC(C)(O/N=C(\C(=O)N[C@@H]1C(=O)N2C(C(=O)[O-])=C(C[n+]3ccccc3)CS[C@H]12)c1csc(N)n1)C(=O)O [CEFTAZIDIME] | – | – | – | 4 (≈ 7.32 µM) | – | 2 (≈ 3.66 µM) | – | – | – | 0.5 (≈ 0.915 µM) | > 8 | – | – | – | – | – | 0.5 (≈ 0.915 µM) | – | 0.5 (≈ 0.915 µM) | – | – |
| NC[C@H]1O[C@H](O[C@H]2[C@H](O)[C@@H](O[C@H]3O[C@H](CO)[C@@H](O)[C@H](N)[C@H]3O)[C@H](N)C[C@@H]2N)[C@H](N)C[C@@H]1O [TOBRAMYCIN] | 0.5 (≈ 1.07 µM) | 0.5 (≈ 1.07 µM) | 0.06 (≈ 0.128 µM) | 1 (≈ 2.14 µM) | 0.25 (≈ 0.535 µM) | 64 (≈ 137 µM) | 2 (≈ 4.28 µM) | 0.5 (≈ 1.07 µM) | 1 (≈ 2.14 µM) | 4 (≈ 8.56 µM) | 16 (≈ 34.2 µM) | 1 (≈ 2.14 µM) | 0.5 (≈ 1.07 µM) | – | 2 (≈ 4.28 µM) | 4 (≈ 8.56 µM) | 4 (≈ 8.56 µM) | 2 (≈ 4.28 µM) | 4 (≈ 8.56 µM) | 1 (≈ 2.14 µM) | – |
